Laboratory results published in patent US4432973A, “Benzoyl- and α-hydroxybenzyl-phenyl-glycosides and application thereof in therapeutics” (Societe de Recherches Industrielles (S.O.R.I.), priority 1980, dated 1984).

Legend:
[1] = Acute toxicity in the mouse by the I.P. route; format: in vivo; conditions: for LD50: read-out: DL-50 (lethal dose involving the death of half of the animals)
From the text: The acute toxicity was studied in the mouse by the I.P. route. It is expressed in the form of DL-50 (lethal dose involving the death of half of the animals) or DL-0 (maximum non-lethal dose).

[2] = Anti-ulcer activity: ulcer caused by aspirin; format: in vivo, rat (male Wistar); conditions: aspirin 192 mg/kg per os, standardised to control batch and cimetidine (index 1)
Description: The experiment is carried out on male Wistar rats of 180 to 200 g. The products to be tested are administered at 100 mg/kg I.P. (unless indicated to the contrary in Table IV).
At t=0, the rats are made to fast and a first administration of the product to be tested is made.
At t=18 hours, 2 ml of an ulcer-forming suspension with 192 mg of aspirin/kg are administered per os then a second administration of the product to be tested is made.
At t=22 hours, the animals are sacrificed and the ulcers are marked as follows: small point-like ulcers: mark 1 more extensive ulcers: mark 3 highly extensive or very deep ulcers: mark 9
This marking is standardised with respect to a control batch and to cimetidine (a reference product) to which index 1 has been allocated.

[3] = Veinous thrombosis: veinous anti-thrombus activity; format: in vivo; conditions: 100 mg/kg I.P., 4 to 5 hours after administration; for inhibition in vivo at 100 mg/kg: Rattus norvegicus, ip, read-out: Diminution of veinous thrombus
Description: The technique used is similar to the one described by Peterson-Zucker in Thrombo.Diath.Haemorh. 23, 1, (1970).
An occlusive thrombus is created in the […] vena cava of a rat by the combined action of an endothelial alteration and a veinous stasis for 15 mins. and 4 to 5 hours after administration of the product to be tested (100 mg/kg I.P.).

[4] = Anti-hypoxic activity: survival to hypoxia (nitrogen-oxygen 95:5); format: in vivo, mouse (Swiss male); conditions: I.P., 1/10th of LD-50 or 100 mg/kg when LD-0 ≥ 800 mg/kg; up to 15 minutes; mouse
Description: The experiment is carried out on batches of 20 Swiss male mice weighing from 20 to 30 g. Each product to be tested is administered to the mice by intraperitoneal route at a dose corresponding to 1/10th of the LD-50 or at a dose of 100 mg/kg when the LD-0 is higher than or equal to 800 mg/kg. The mice are placed in a nitrogen-oxygen (95:5) v/v atmosphere. The survival time of the mice is then measured up to 15 minutes maximum.
The results shown in Table VII are expressed in percentage of survival with respect to a non-treated control batch and a batch treated with an anti-hypoxic reference product [specialty known under the trade name of "Duxil" and which is constituted by a mixture of Almitrine bis-methanesulfonate and of Raubasine in the weight ratio 3:1], the anti-hypoxic reference product being administered at the dose of 18 mg/kg I.P.

SMILES | DL-0 (maximum non-lethal dose) ([1]; I.P.) [mg/kg IP] | Ulcer index ([2]; 100 mg/kg I.P.) | inhibition in vivo at 100 mg/kg [3] [%] | Survival (survival percentage to hypoxic aggression) [4] | further results
CC(=O)O[C@@H]1[C@@H](OC(C)=O)[C@H](Oc2ccc(C(=O)c3ccccc3Cl)cc2)OC[C@H]1OC(C)=O [Example 70] | > 800 | 0.56 | 30 to 49 |  | 
OC(c1ccc(O[C@@H]2OC[C@@H](O)[C@H](O)[C@H]2O)cc1)c1ccc(Cl)cc1Cl (some centres unmarked) [Example 86] |  | 0.50 | 30 to 49 |  | LD50 ([1]; in vivo, ip, I.P.): > 350 mg/kg
O=[N+]([O-])c1ccc(C(O)c2ccc(O[C@@H]3OC[C@@H](O)[C@H](O)[C@H]3O)cc2)cc1 (single isomer, unassigned) [Example 99, [4-(4-nitro-α-hydroxybenzyl)-phenyl]-β-D-xylopyranoside] |  |  |  |  | Diminution of veinous thrombus ([3]; rat): + (inhibition of 30 to 49%)
O=C(c1ccc(O[C@@H]2OC[C@@H](O)[C@H](O)[C@H]2O)cc1)c1ccccc1[N+](=O)[O-] [Example 6] |  | 0.45 | 30 to 49 |  | LD50 ([1]; in vivo, ip, I.P.): 600 mg/kg
OC(c1ccc(O[C@@H]2OC[C@@H](O)[C@H](O)[C@H]2O)cc1)c1ccccc1Cl (some centres unmarked) [Example 88] | > 800 | 0.39 | ≥ 50 |  | 
CC(=O)O[C@@H]1[C@@H](OC(C)=O)[C@H](Oc2ccc(C(=O)c3ccc(N)cc3)cc2)OC[C@H]1OC(C)=O [Example 77] | > 800 |  | 30 to 49 |  | 
Cc1cc(C)c(C(=O)c2cccc(O[C@@H]3OC[C@@H](O)[C@H](O)[C@H]3O)c2)c(C)c1 [Example 71] | > 800 | 0.98 | 30 to 49 |  | 
O=C(c1ccccc1)c1cccc(O[C@@H]2OC[C@@H](O)[C@H](O)[C@H]2O)c1 [Example 45] | > 800 | 1.11 | 30 to 49 |  | 
O=C(c1ccc(O[C@@H]2OC[C@@H](O)[C@H](O)[C@H]2O)cc1)c1ccccc1Cl [Example 5] | > 800 |  | ≥ 50 |  | 
COc1ccc(C(=O)c2ccc(O[C@@H]3OC[C@@H](OC(C)=O)[C@H](OC(C)=O)[C@H]3OC(C)=O)cc2)cc1 [Example 81] | > 800 | 0.64 | 30 to 49 |  | 
O=C(c1ccc(O[C@@H]2OC[C@@H](O)[C@H](O)[C@H]2O)cc1)c1cccc([N+](=O)[O-])c1 [Example 2] | > 800 | 0.84 | 30 to 49 |  | 
Cc1cc(C(=O)c2ccc([N+](=O)[O-])cc2)ccc1O[C@@H]1OC[C@@H](O)[C@H](O)[C@H]1O [Example 29] | > 800 |  | 30 to 49 |  | 
O=C(c1ccc(Br)cc1)c1ccc(O[C@@H]2OC[C@@H](O)[C@H](O)[C@H]2O)cc1 [Example 4] | > 800 | 1.04 | 30 to 49 |  | 
CC(=O)N[C@H]1[C@H](Oc2ccc(C(=O)c3ccc([N+](=O)[O-])cc3)cc2)O[C@H](COC(C)=O)[C@@H](OC(C)=O)[C@@H]1OC(C)=O [Example 109] |  | 0.65 |  | ++ (from 50 to 79%) | DL-0 (maximum non-lethal dose) ([1]; in vivo, ip): > 800 mg/kg IP
CC(=O)N[C@H]1[C@H](Oc2ccc(C(=O)c3ccc(C)cc3)cc2)O[C@H](COC(C)=O)[C@@H](OC(C)=O)[C@@H]1OC(C)=O [Example 112] |  | 0.68 |  | ++ (from 50 to 79%) | DL-0 (maximum non-lethal dose) ([1]; in vivo, ip): > 800 mg/kg IP
COc1ccc(C(=O)c2ccc(O[C@@H]3OC[C@@H](O)[C@H](O)[C@H]3O)cc2)cc1 [Example 17] |  | 0.69 | 30 to 49 |  | LD50 ([1]; in vivo, ip, I.P.): 1600 mg/kg
O=C(c1ccccc1)c1ccc(O[C@@H]2OC[C@@H](O)[C@H](O)[C@H]2O)cc1 [Example 18] |  |  | 30 to 49 |  | LD50 ([1]; in vivo, ip, I.P.): > 1000 mg/kg

SMILES | DL-0 (maximum non-lethal dose) ([1]; I.P.) [mg/kg IP] | Ulcer index ([2]; 100 mg/kg I.P.) | inhibition in vivo at 100 mg/kg [3] [%] | Survival (survival percentage to hypoxic aggression) [4] | further results
O=C(c1ccc(O[C@@H]2OC[C@@H](O)[C@H](O)[C@H]2O)cc1)c1cccc(C(F)(F)F)c1 [Example 13] |  | 0.46 |  | ++ (from 50 to 79%) | LD50 ([1]; in vivo, ip, I.P.): 170 mg/kg
CC(=O)O[C@@H]1[C@@H](OC(C)=O)[C@H](Oc2ccc(C(=O)c3ccccc3C)cc2)OC[C@H]1OC(C)=O [Example 69] |  | 0.78 | 30 to 49 |  | LD50 ([1]; in vivo, ip, I.P.): 900 mg/kg
CC(=O)N[C@H]1[C@H](Oc2ccc(C(=O)c3ccc([N+](=O)[O-])cc3)cc2)O[C@H](CO)[C@@H](O)[C@@H]1O [Example 44, [4-(4-nitrobenzoyl)-phenyl]-2-(N-acetyl)-β-D-glucosaminide] |  | 0.385 |  | +++ (higher than or equal to 80%) | DL-0 (maximum non-lethal dose) ([1]; in vivo, ip): > 800 mg/kg IP
Nc1ccccc1C(=O)c1ccc(O[C@@H]2OC[C@@H](O)[C@H](O)[C@H]2O)cc1 [Example 7] | > 800 |  | ≥ 50 |  | 
CC(=O)N[C@H]1[C@H](Oc2ccc(C(=O)c3ccc(C)cc3)cc2)O[C@H](CO)[C@@H](O)[C@@H]1O [Example 111] |  | 0.42 |  | ++ (from 50 to 79%) | LD50 ([1]; in vivo, ip, I.P.): 750 mg/kg
Cc1cc(C(=O)c2ccc([N+](=O)[O-])cc2)cc(C)c1O[C@@H]1OC[C@@H](O)[C@H](O)[C@H]1O [Example 23] |  | 0.52 | 30 to 49 |  | LD50 ([1]; in vivo, ip, I.P.): 750 mg/kg
CC(=O)N[C@H]1[C@H](Oc2ccc(C(=O)c3ccc(Cl)cc3)cc2)O[C@H](CO)[C@@H](O)[C@@H]1O [Example 43] |  | 0.52 |  | +++ (higher than or equal to 80%) | DL-0 (maximum non-lethal dose) ([1]; in vivo, ip): > 800 mg/kg IP
O=C(c1ccc(O[C@@H]2O[C@H](CO)[C@@H](O)[C@H](O)[C@H]2O)cc1)c1ccc([N+](=O)[O-])cc1 [Example 19] |  | 0.74 |  | ++ (from 50 to 79%) | DL-0 (maximum non-lethal dose) ([1]; in vivo, ip): > 800 mg/kg IP
Cc1ccccc1C(O)c1ccc(O[C@@H]2OC[C@@H](O)[C@H](O)[C@H]2O)cc1 (some centres unmarked) [Example 89] | > 800 | 0.88 | ≥ 50 |  | 
O=[N+]([O-])c1ccc(C(O)c2ccc(O[C@@H]3OC[C@@H](O)[C@H](O)[C@H]3O)cc2)cc1 (single isomer, unassigned) [Example 98, [4-(4-nitro-α-hydroxybenzyl)-phenyl]-β-D-xylopyranoside] |  |  | ≥ 50 |  | 
CC(=O)O[C@@H]1[C@@H](OC(C)=O)[C@H](Oc2ccc(C(=O)c3ccc(Br)cc3)cc2)OC[C@H]1OC(C)=O [Example 75] | > 800 | 0.32 | 30 to 49 |  | 
COc1cccc(C(=O)c2ccc(O[C@@H]3OC[C@@H](O)[C@H](O)[C@H]3O)cc2)c1 [Example 16] |  | 0.73 |  | + (from 30 to 49%) | DL-0 (maximum non-lethal dose) ([1]; in vivo, ip): > 800 mg/kg IP
OC(c1ccccc1)c1cccc(O[C@@H]2OC[C@@H](O)[C@H](O)[C@H]2O)c1 (some centres unmarked) [Example 117] |  | 0.59 |  | ++ (from 50 to 79%) | LD50 ([1]; in vivo, ip, I.P.): 1000 mg/kg
O=C(c1ccc(O[C@@H]2OC[C@@H](O)[C@H](O)[C@H]2O)cc1)c1ccc(C(F)(F)F)cc1 [Example 11] |  |  |  | ++ (from 50 to 79%) | DL-0 (maximum non-lethal dose) ([1]; in vivo, ip): > 800 mg/kg IP; Ulcer index ([2]; 200 mg/kg P.O.): 0
OC(c1ccccc1)c1ccc(O[C@@H]2OC[C@@H](O)[C@H](O)[C@H]2O)cc1 (some centres unmarked) [Example 92] |  |  | 30 to 49 |  | LD50 ([1]; in vivo, ip, I.P.): 1400 mg/kg
CC(=O)N[C@H]1[C@H](Oc2ccc(C(=O)c3ccccc3C)cc2)O[C@H](CO)[C@@H](O)[C@@H]1O [Example 121] |  | 0.39 |  | + (from 30 to 49%) | DL-0 (maximum non-lethal dose) ([1]; in vivo, ip): > 800 mg/kg IP
CC(=O)N[C@H]1[C@H](Oc2ccc(C(O)c3ccc(Cl)cc3)cc2)O[C@H](CO)[C@@H](O)[C@@H]1O (some centres unmarked) [Example 100] |  | 0.35 |  | ++ (from 50 to 79%) | DL-0 (maximum non-lethal dose) ([1]; in vivo, ip): > 800 mg/kg IP
